One assay addresses T1, EGFR tyrosine kinase (Homo sapiens, UniProt P00533).
T1 construct: Recombinant intracellular fragments of EGFR, erbB2 and erbB4; made in house; host or cells: baculovirus/Sf21 insect cells
Kind of assay: Protein tyrosine kinase phosphorylation assay, Test (a), EGFR. The following applies: ATP at Km concentration; read-out: IC50 Test (a): Inhibition of EGFR tyrosine kinase protein phosphorylation. It counts as biochemical. On the procedure:
(§1) a) Protein Tyrosine Kinase phosphorylation Assays
(§2) This test measures the ability of a test compound to inhibit the phosphorylation of a tyrosine containing polypeptide substrate by EGFR, erbB2 and erbB4 tyrosine kinase enzyme.
(§3) Recombinant intracellular fragments of EGFR, erbB2 and erbB4 (accession numbers X00588, X03363 and L07868 respectively) were cloned and expressed in the baculovirus/Sf21 system. […]
(§4) Constitutive kinase activity of these recombinant proteins was determined by their ability to phosphorylate a synthetic peptide (made up of a random co-polymer of Glutamic Acid, Alanine and Tyrosine in the ratio of 6:3:1). […]
(§5) The immobilised phospho-peptide product of the reaction was detected by immunological methods. […] After further washing, HRP activity in each well of the plate was measured colorimetrically using 22′-Azino-di-[3-ethylbenzthiazoline sulfonate (6)]diammonium salt crystals (ABTS™ from Roche) as a substrate.
(§6) Quantification of colour development and thus enzyme activity was achieved by the measurement of absorbance at 405 nm on a Molecular Devices ThermoMax microplate reader. Kinase inhibition for a given compound was expressed as an IC50 value. […] The range of phosphorylation was calculated from the positive (vehicle plus ATP) and negative (vehicle minus ATP) control values.

The target in another assay is T2, erbB2 tyrosine kinase (Homo sapiens, UniProt P04626).
T2 construct: Recombinant intracellular fragments of EGFR, erbB2 and erbB4; made in house; host or cells: baculovirus/Sf21 insect cells
T2 sequence (P04626 676-1255 limits assumed): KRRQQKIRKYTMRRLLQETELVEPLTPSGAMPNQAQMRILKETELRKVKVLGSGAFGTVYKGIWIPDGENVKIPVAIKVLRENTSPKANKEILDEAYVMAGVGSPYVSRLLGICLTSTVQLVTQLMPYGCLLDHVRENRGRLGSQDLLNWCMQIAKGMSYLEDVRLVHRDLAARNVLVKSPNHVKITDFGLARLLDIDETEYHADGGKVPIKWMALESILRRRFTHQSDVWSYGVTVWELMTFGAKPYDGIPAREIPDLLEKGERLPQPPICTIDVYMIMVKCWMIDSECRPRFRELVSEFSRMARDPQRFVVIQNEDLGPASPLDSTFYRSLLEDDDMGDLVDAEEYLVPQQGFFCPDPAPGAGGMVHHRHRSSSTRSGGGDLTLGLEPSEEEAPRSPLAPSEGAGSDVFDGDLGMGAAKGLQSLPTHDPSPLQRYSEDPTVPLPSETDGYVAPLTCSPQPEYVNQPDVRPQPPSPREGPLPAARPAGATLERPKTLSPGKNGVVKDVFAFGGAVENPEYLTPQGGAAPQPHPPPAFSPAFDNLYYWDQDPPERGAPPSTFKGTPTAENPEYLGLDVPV
The assay is described as follows: Protein tyrosine kinase phosphorylation assay, Test (a), erbB2. Format: biochemical. The following applies: ATP at Km concentration; read-out: IC50 Test (a): Inhibition of erbB2 tyrosine kinase protein phosphorylation. As to the method:
as §1, §2, §3, §4, §5, §6

For 2 compounds, IC50 results are on record in patent US20090239861A1, “QUINAZOLINE DERIVATIVES AS ANTICANCER AGENTS” (priority 2005, published 2009).

T1 sequence (P00533 669-1210 limits assumed): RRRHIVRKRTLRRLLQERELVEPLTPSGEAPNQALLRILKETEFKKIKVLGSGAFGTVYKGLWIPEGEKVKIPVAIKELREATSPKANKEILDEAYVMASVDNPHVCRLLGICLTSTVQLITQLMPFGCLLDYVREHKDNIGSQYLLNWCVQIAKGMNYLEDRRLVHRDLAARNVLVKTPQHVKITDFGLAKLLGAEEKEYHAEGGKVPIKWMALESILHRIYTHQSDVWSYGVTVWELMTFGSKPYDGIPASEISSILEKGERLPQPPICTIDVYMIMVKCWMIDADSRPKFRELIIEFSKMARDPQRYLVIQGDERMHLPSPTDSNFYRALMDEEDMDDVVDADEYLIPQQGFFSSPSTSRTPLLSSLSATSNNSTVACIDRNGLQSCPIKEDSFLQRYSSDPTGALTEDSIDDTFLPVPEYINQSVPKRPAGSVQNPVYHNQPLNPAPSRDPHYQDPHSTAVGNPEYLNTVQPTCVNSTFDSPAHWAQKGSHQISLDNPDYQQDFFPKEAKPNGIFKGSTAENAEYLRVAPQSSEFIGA

Regarding `C[C@@H](Oc1cccc2ncnc(Nc3ccc4c(ccn4Cc4ccccn4)c3)c12)C(=O)N(C)CCO` [Example 1, (2R)—N-(2-Hydroxyethyl)-N-methyl-2-[(4-{[1-(pyridin-2-ylmethyl)-1H-indol-5-yl]amino}quinazolin-5-yl)oxy]propanamide], the IC50 (in general, the concentration at which inhibition is half-maximal) on EGFR tyrosine kinase turned out to be 370 nM; on erbB2 tyrosine kinase, 11 nM.

Regarding `C[C@@H](Oc1cccc2ncnc(Nc3ccc4c(ccn4Cc4ccccn4)c3)c12)C(=O)N(C)C` [Example 2, (2R)—N,N-Dimethyl-2-[(4-{[1-(pyridin-2-ylmethyl)-1H-indol-5-yl]amino}quinazolin-5-yl)oxy]propanamide], the IC50 worked out at 170 nM at EGFR tyrosine kinase and 15 nM at erbB2 tyrosine kinase.
